Measured values from patent US4749790A, “Process for preparing H2 receptor antagonist ascorbate compounds” (priority 1985, dated 1988).
Converted amounts (≈) assume the structure as drawn. Like-named read-outs stand apart in the source and are kept apart here. One block for each molecule: values may come before it.

Assays:
[1] = tested on: duodenal ulcer
[2] = pH of aqueous solution; type: physicochemical
[3] = Nitrosation in gastric juice or simulated gastric juice (Griess reagent, TLC); settings: for NC (nitrosocimetidine) found: 75 ml simulated gastric juice, 37° C., pH 1.0-3.5, ascorbate-nitrite 6:1 molar ratio
[4] = Solubility in water
[5] = Stability to ambient environment (air, light, oxidation)
[6] = tested on: rats; settings: eight days treatment, 500 mg/kg; cited from earlier work
[7] = 70° C.; 20 min (10% hydrochloric acid), 180 min (ascorbic acid); cited from earlier work
[8] = wide pH range; cited from earlier work
[9] = tested on: gastric carcinoma; settings: in vivo; cited from earlier work
[10] = tested on: desoxyribonucleic acid (DNA); settings: cimetidine 250 mg/kg with nitrite 80 mg/kg; cited from earlier work

SMILES: CNC(=NC#N)NCCSCc1nc[nH]c1C [Example 1, Cimetidine L-ascorbate]
outcome of relapse and improvement maintenance cases ([1]; maintenance doses 680 mg ascorbate or 860 mg diascorbate, one year continuously, two years with breaks): normality being achieved | outcome in males with duodenal ulcer diagnosis ([1]; males aged 55-60 years, usual periods of cimetidine medication): back to normal | pH of aqueous solution [2]: 4.5 | NC (nitrosocimetidine) found ([3]; listed as cimetidine ascorbate): 0.18 ppm | water solubility (in words) [4]: soluble in water

pH of aqueous solution [2]: 3.5
SMILES: CNC(=C[N+](=O)[O-])NCCSCc1ccc(CN(C)C)o1 [Example 8, Ranitidine L-ascorbate]

pH of aqueous solution [2]: 5.9 | pH of aqueous solution ([2]; listed as famotidine ascorbate): 5.6 | solubility ([4]; water, Solubility in water, room temperature where printed): 75 mg/mL (≈ 222 mM)
SMILES: NC(N)=Nc1nc(CSCCC(N)=NS(N)(=O)=O)cs1 [Example 12, Famotidine L-ascorbate]
stability to air, light, ambient conditions [5]: has to be preserved from the air and light

water solubility (in words) [4]: water soluble
SMILES: Nc1n[s+]([O-])nc1NCCCOc1cccc(CN2CCCCC2)c1 [Example 14, CM.5 antagonist L-ascorbate]
stability to air, light, ambient conditions [5]: has to be preserved from the air and light

water solubility (in words) [4]: water soluble
SMILES: Cc1ccc(Cc2c[nH]c(NCCSCc3ccc(CN(C)C)o3)nc2=O)cn1 [Example 15, CM.10 antagonist L-ascorbate]

SMILES: CN/C(=N/CCSCc1nc[nH]c1C)NC#N [Example 16, Cimetidine diascorbate]
stability to air, light, ambient conditions [5]: has to be preserved from the air and light | NC (nitrosocimetidine) found [3]: 0.13 ppm | NC produced in cases of hyperchlorhydria ([3]; abnormally high nitrite concentrations): 0.08 ppm

TLC spot of nitroso derivative at Rf = 0.83 ([3]; gastric juice pH 1.5, 318 mg diascorbate, 18.2 mg sodium nitrite, 60 min): did not appear
SMILES: CNC(=C[N+](=O)[O-])NCCSCc1ccc(CN(C)C)o1 [Example 18, Ranitidine diascorbate]

SMILES: Cc1[nH]cnc1CSCCN=C(NC#N)N(C)N=O [NC, nitrosocimetidine]
toxic effect [6]: no toxic effect

SMILES: O=C1O[C@H]([C@@H](O)CO)C(O)=C1O [ascorbic acid, 3-oxo-L-gulofuranelactone (enolic form)]
denitrosation [7]: innefective | inhibition of N-nitroso compound formation [8]: most effective over a wide pH range

SMILES: CN/C(=N/CCSCc1nc[nH]c1C)NC#N [cimetidine, N"-cyano-N'-methyl-N-2-(5-methyl-1H-imidazol-4-yl)methylthioethylguanidine]
gastric carcinoma related with treatment [9]: appearance of a gastric carcinoma | evidence of DNA damage [10]: no evidence of desoxyribonucleic acid (DNA) damage | NCD (nitroso compound derivatives) determined ([3]; 400 mg cimetidine, 36.4 mg sodium nitrite, 75 ml gastric juice, pH 1.5, 37° C., 60 min): 100 ppm

SMILES: Cl [hydrochloric acid]
denitrosation [7]: innefective

SMILES: CNC(=C[N+](=O)[O-])NCCSCc1ccc(CN(C)C)o1 [ranitidine, N-(2-(((5-((dimethylamino)methyl)-2-furanyl)methyl)thio)ethyl)N'-methyl-2-nitro-1,1-ethenediamine, reference compound]
formation of nitroso compounds / nitrosatability ([3]; gastric juice conditions): causes the formation of nitroso derivatives and nitrosated degradation products
